Measured values: patent US20200129434A1, “LIPOSOME COMPOSITIONS AND USES THEREOF” (TECHNION RESEARCH & DEVELOPMENT FOUNDATION LIMITED, priority 2017, published 2020)

Assays:
U87 glioblastoma cells [1] = experiment: Tumor growth in the mouse model of glioblastoma, luciferase imaging with IVIS 200; type: in vivo, SCID immuno-deficient mice; conditions: 4 mg/kg daily intraperitoneally, FIG. 3A
Source text: (§1) In order to assess the efficacy of the liposome composition in delivering a therapeutic agent to the brain, glioblastoma in a mouse model was employed. Curcumin was integrated into liposomes comprising cholesterol: phosphatidyl phosphoric acid: phosphatidyl choline in molar ratios of 35:7:58. The targeting peptide was present at 0.5% by molar ratio, mol % or weight %, and the curcumin was at a final concentration of 1% by molar ratio, mol % or weight %. The resulting liposomes where lyophilized, hydrated and downsized into a diameter of 0.1 μm±20%.
(§2) These liposomes comprised cholesterol: phosphatidyl phosphoric acid: phosphatidyl choline in molar ratios of 40:5:55. The molar concentration of the drug and targeting peptide were unchanged.
As a model of glioblastoma, SCID immuno-deficient mice were implanted with U87 glioblastoma cells. The U87 cells had previously been transfected with a luciferase gene, such that upon intraperitoneally injection of the mice with luciferin, the cells would fluoresce, allowing for accurate quantification and imaging of the tumor using the IVIS 200 imaging system. The degree of fluorescence measured was proportional to the number of cancer cells, and therefore indicated the cancer growth. […]
By using the luciferase imaging system, quantification of the relative tumor size was possible (FIG. 3). […]

U87 glioblastoma cells [2] = experiment: Survival studies in U87 transferred mice; type: in vivo, SCID immuno-deficient mice
Source text: as §1, §2
As a model of glioblastoma, SCID immuno-deficient mice were implanted with U87 glioblastoma cells. The U87 cells had previously been transfected with a luciferase gene, such that upon intraperitoneally injection of the mice with luciferin, the cells would fluoresce, allowing for accurate quantification and imaging of the tumor using the IVIS 200 imaging system. The degree of fluorescence measured was proportional to the number of cancer cells, and therefore indicated the cancer growth.
Curcumin and TMZ in targeted liposome carriers, were administered intraperitoneally to the mice 3 days after injection of the tumor cells and for at least 3 weeks. […]

[3] = Evaluation of liposome compositions for delivery of curcumin (solubility, drug stability, half-life); type: physicochemical; conditions: curcumin loaded in the cholesterol/PA/PC liposome formulation
Source text: To test various liposome compositions, the water insoluble drug curcumin was employed as the therapeutic agent to be incorporated into the liposome. Curcumin, has been used for many clinical purposes, including as an antioxidant, antibacterial, anti-inflammatory agent, anti-neurodegenerative processes and anticancer agent. Curcumin however, is highly water-insoluble, has a very short biological half-life, and poor pharmacokinetics. Previous attempts at liposomes for the delivery of curcumin comprised cholesterol (Ch), 1,2-dioleyl-sn-glycero-3-phosphocholine (DOPC), 1,2-dioleyl-sn-glycero-3-phosphoethanolamine (DOPE), and 1,2-dioleoyl-sn-glycero-3-[phosphor-L-serine] (DOPS), usually in equimolar amounts.
Various compositions of liposomes for delivery of curcumin were tested and evaluated for drug loading, drug stability and half-life, and effective targeting in the body. […] The targeting peptide was dissolved in chloroform/methanol and added to the mixture at 0.1-2% by molar ratio, mol % or weight %.
Loading of the drug into the liposome was achieved by pre-dissolving the target drug during the preparation of the liposome, thereby enabling a desired and reproducible concentration of the drug in the most stabilized environment.

Compound | latency period before tumor growth (U87 glioblastoma cells [1]) [weeks] | survival time of all mice after tumor cell transfer (U87 glioblastoma cells [2]; daily dosing 4 mg/kg, FIG. 4) [days] | degradation and biological half-life of the drug [3] | survival compared with control (in words) (U87 glioblastoma cells [2]; 4 mg drug/kg mouse daily)
Cn1nnc2c(C(N)=O)ncn2c1=O [free TMZ, Temozolomide] | 2 | ≤ 30 |  | 
COc1cc(/C=C/C(=O)CC(=O)/C=C/c2ccc(O)c(OC)c2)ccc1O [free curcumin, curcumin] |  |  | protect the drug from degradation and prolong its biological half-life | survival was not significantly extended
